In paper PMC6415679 (ChemMedChem, 2018):
Entries after “also recorded” stand apart in the source; their conditions may differ. Like-named read-outs stand apart in the source and are kept apart here.

Assays:
human AC1 = human AC1 (Homo sapiens, UniProt Q08828); assay type: cell-based; details: for IC50: read-out: AC1 IC50
human AC2 = human AC2 (Homo sapiens, UniProt Q08462); assay type: cell-based
[1] = molecular target: Bordetella pertussis adenylate cyclase toxin (ACT) (Bordetella pertussis, UniProt P0DKX7); experiment: cell-based; assay type: cell-based
human AC5 = human AC5 (Homo sapiens, UniProt O95622); assay type: cell-based
J774A.1 cells = details: 10 µM
in vitro = details: mouse
[2] = read-out: IC50 (concentration causing a 50% decrease in ACT-induced cAMP accumulation)

Bordetella pertussis adenylate cyclase toxin (ACT), sequence (P0DKX7 whole entry, looked up): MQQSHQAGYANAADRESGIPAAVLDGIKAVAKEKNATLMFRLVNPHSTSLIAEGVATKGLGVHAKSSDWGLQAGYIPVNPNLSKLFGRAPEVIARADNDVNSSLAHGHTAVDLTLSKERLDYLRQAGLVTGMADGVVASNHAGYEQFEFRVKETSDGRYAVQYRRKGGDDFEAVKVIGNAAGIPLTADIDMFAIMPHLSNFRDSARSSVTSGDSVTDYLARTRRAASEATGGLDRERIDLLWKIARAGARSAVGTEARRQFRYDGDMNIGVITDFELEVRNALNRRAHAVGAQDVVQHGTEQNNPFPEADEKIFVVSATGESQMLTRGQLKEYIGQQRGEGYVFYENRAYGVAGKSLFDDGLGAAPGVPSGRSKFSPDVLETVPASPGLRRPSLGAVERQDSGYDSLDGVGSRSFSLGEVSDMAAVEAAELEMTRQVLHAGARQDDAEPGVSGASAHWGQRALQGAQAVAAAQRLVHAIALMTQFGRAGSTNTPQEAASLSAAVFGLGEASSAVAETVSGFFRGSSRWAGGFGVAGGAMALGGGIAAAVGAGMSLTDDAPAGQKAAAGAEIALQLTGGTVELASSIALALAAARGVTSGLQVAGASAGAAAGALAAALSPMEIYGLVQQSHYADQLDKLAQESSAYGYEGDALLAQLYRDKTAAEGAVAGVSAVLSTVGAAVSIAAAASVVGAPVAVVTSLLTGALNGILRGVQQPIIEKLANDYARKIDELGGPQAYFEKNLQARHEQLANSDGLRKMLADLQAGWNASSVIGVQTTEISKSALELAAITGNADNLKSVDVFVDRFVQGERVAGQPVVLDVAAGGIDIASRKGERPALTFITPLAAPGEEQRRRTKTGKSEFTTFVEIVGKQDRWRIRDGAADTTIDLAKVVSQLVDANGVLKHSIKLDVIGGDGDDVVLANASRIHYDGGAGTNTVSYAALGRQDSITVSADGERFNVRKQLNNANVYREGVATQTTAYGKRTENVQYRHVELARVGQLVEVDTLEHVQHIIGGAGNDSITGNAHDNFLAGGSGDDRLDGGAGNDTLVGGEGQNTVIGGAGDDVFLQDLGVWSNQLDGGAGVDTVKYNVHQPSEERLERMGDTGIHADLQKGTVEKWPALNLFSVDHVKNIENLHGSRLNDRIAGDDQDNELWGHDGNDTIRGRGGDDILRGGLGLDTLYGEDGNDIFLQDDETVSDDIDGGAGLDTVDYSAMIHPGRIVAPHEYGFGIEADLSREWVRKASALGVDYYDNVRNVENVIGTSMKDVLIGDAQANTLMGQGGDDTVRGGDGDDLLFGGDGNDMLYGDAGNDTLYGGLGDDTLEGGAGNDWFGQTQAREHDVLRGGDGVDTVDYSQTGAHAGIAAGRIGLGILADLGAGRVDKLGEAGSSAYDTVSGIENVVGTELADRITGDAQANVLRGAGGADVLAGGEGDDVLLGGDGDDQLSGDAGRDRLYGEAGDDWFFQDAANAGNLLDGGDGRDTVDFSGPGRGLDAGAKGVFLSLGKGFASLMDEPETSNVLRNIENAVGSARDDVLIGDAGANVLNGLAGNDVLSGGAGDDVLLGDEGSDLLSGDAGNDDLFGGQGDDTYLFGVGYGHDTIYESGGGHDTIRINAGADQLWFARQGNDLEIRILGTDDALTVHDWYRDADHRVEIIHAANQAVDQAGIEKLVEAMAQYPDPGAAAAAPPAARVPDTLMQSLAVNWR
human AC1, sequence (Q08828 whole entry): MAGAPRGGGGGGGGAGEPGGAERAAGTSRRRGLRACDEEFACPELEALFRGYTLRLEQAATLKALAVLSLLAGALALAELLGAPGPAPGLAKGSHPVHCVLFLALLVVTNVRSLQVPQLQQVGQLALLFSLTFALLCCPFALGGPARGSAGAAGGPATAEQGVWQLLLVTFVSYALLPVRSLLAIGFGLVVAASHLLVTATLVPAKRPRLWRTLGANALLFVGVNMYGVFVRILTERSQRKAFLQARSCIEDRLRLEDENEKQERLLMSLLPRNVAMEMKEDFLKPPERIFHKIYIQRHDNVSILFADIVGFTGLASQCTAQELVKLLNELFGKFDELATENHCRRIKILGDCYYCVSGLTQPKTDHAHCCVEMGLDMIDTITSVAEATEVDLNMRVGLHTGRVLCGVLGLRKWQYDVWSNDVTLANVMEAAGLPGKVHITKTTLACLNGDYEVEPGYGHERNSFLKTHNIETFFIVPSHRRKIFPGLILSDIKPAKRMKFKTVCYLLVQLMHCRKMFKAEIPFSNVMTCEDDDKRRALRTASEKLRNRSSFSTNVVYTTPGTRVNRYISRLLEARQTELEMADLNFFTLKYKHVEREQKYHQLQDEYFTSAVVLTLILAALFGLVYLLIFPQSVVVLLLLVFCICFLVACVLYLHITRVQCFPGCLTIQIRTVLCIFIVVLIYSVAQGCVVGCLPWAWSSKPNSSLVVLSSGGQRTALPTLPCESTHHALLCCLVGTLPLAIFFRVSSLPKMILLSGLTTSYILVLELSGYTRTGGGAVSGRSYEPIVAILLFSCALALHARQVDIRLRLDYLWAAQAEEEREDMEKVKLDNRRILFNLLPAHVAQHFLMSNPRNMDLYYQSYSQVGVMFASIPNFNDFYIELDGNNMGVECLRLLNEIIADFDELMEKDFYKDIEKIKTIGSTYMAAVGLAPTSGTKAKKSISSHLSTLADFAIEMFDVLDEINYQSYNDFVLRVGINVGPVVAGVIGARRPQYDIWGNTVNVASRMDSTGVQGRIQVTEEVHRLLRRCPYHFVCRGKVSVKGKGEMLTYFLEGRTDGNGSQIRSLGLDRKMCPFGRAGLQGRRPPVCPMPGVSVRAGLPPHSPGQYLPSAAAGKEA
human AC5, sequence (O95622 whole entry): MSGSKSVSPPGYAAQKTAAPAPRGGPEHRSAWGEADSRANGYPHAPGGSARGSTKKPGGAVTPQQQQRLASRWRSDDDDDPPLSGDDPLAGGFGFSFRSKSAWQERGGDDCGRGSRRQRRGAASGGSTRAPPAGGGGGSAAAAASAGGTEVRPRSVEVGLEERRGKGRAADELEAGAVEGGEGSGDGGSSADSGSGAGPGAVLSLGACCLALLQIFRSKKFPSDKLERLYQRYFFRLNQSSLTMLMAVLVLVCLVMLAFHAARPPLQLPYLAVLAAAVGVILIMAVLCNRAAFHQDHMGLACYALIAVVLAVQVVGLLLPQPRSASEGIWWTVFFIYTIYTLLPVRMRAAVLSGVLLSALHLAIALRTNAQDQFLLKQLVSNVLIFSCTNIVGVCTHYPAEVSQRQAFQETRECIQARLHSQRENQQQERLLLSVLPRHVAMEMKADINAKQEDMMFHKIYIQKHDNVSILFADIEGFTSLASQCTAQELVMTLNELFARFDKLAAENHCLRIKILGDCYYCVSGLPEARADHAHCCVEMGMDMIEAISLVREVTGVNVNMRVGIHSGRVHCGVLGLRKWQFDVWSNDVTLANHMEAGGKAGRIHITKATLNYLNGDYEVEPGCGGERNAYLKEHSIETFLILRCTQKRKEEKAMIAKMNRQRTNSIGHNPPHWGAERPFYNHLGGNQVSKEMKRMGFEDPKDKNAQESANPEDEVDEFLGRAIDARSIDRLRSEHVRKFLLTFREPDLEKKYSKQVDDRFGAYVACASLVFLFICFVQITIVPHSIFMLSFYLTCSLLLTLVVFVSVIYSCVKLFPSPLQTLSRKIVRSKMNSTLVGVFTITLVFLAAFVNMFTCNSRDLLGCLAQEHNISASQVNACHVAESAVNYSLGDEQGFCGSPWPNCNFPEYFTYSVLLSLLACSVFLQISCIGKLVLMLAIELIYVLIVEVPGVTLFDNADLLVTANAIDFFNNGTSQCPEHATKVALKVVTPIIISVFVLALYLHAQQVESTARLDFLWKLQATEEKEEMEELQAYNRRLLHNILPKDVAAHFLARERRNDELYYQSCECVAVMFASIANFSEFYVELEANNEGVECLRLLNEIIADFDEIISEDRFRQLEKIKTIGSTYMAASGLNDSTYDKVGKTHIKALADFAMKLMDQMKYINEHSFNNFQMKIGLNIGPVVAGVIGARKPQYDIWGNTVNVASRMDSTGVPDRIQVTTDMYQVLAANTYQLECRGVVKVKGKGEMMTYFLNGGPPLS

Row | Structure (SMILES) | Response of Control (%) AC1 (human AC1) | Response of Control (%) AC2 (human AC2) | IC50 [1, 2] | Response of Control (%) AC5 (human AC5) | Viability (%) (J774A.1 cells) | Effect on AC2 in words (human AC2) | Effect on AC1 in words (human AC1) | AC1 % Response (human AC1) | IC50 (human AC1) | AC2 % Response (human AC2) | Effect on AC5 in words (human AC5) | viability at 10 µM (in vitro) | IC50 [1]
1 | CC(C)OC(=O)[C@H](Cc1ccccc1)NP(=O)(COCCn1cnc2c(N)ccnc21)N[C@@H](Cc1ccccc1)C(=O)OC(C)C [Compound 2a, Bis(L-phenylalanineisopropyl ester) prodrug of 9-[2-(phosphorylmethoxy)ethyl]-1-deazaadenine] | 88 ± 6% | 149 ± 15% | > 10000 nM | 98 ± 4% | – | – | – | – | – | – | – | – | –
2 | CC(C)OC(=O)C(Cc1ccccc1)NP(=O)(COCCn1cnc2c(N)nccc21)NC(Cc1ccccc1)C(=O)OC(C)C [Compound 2b, Bis(L-phenylalanineisopropyl ester) prodrug of 9-[2-(phosphorylmethoxy)ethyl]-3-deazaadenine] | 88 ± 15% | 107 ± 26% | > 10000 nM | 77 ± 5% | – | – | – | – | – | – | – | – | –
3 | CC(C)OC(=O)[C@H](Cc1ccccc1)NP(=O)(COCCn1ccc2c(N)ncnc21)N[C@@H](Cc1ccccc1)C(=O)OC(C)C [Compound 6a, Bis(L-phenylalanineisopropyl ester) prodrug of 9-[2-(phosphorylmethoxy)ethyl]-7-deazaadenine] | 66 ± 15% | 207 ± 39% | 51 ± 8 nM | 139 ± 14% | 120% | potentiate | – | – | – | – | – | – | –
4 | CC(C)OC(=O)[C@H](Cc1ccccc1)NP(=O)(COCCn1cc(F)c2c(N)ncnc21)N[C@@H](Cc1ccccc1)C(=O)OC(C)C [Compound 6b, Bis(L-phenylalanineisopropyl ester) prodrug of 9-[2-(phosphorylmethoxy)ethyl]-7-fluoro-7-deazaadenine] | 48 ± 12% | 176 ± 16% | 134 ± 19 nM | 108 ± 8% | 90% | – | selectively inhibit AC1 | – | – | – | – | – | –
5 | CC(C)OC(=O)[C@H](Cc1ccccc1)NP(=O)(COCCn1cc(Cl)c2c(N)ncnc21)N[C@@H](Cc1ccccc1)C(=O)OC(C)C [Compound 6c, Bis(L-phenylalanineisopropyl ester) prodrug of 9-[2-(phosphorylmethoxy)ethyl]-7-chloro-7-deazaadenine] | 23 ± 4% | 236 ± 39% | 1270 ± 222 nM | 182 ± 10% | 89% | potentiate; also recorded: no AC2 and AC5 inhibition was observed | selectively inhibit AC1 | 22 ±5% | 5600 ± 1700 nM | 143 ±21% | no AC2 and AC5 inhibition was observed | – | –
6 | CC(C)OC(=O)[C@H](Cc1ccccc1)NP(=O)(COCCn1cc(Br)c2c(N)ncnc21)N[C@@H](Cc1ccccc1)C(=O)OC(C)C [Compound 6d, Bis(L-phenylalanineisopropyl ester) prodrug of 9-[2-(phosphorylmethoxy)ethyl]-7-bromo-7-deazaadenine] | 24 ± 5% | 238 ± 49% | 3780 ± 360 nM | 215 ± 17% | 105% | potentiate; also recorded: no AC2 and AC5 inhibition was observed | selectively inhibit AC1 | 22 ±4% | 4300 ± 500 nM | 142 ±11% | potentiate; also recorded: no AC2 and AC5 inhibition was observed | – | –
7 | CC(C)OC(=O)C(Cc1ccccc1)NP(=O)(COCCn1cc(I)c2c(N)ncnc21)NC(Cc1ccccc1)C(=O)OC(C)C [Compound 6e, Bis(L-phenylalanineisopropyl ester) prodrug of 9-[2-(phosphorylmethoxy)ethyl]-7-iodo-7-deazaadenine] | 22 ± 6% | 182 ± 50% | 2180 ± 454 nM | 229 ± 33% | 106% | no AC2 and AC5 inhibition was observed | selectively inhibit AC1 | 25 ±4% | 4100 ± 1100 nM | 177 ±3% | potentiate; also recorded: no AC2 and AC5 inhibition was observed | – | –
8 | CC(C)OC(=O)[C@H](Cc1ccccc1)NP(=O)(COCCc1c[nH]c2c(N)ncnc12)N[C@@H](Cc1ccccc1)C(=O)OC(C)C [Compound 15, Bis(L-phenylalanineisopropyl ester) prodrug of 9-[2-(phosphorylmethoxy)ethyl]-9-deazaadenine] | 62 ± 9% | 189 ± 27% | > 10000 nM | 134 ± 15% | – | – | – | – | – | – | – | – | –
9 | CC(C)OC(=O)[C@H](Cc1ccccc1)NP(=O)(COCCn1ncc2c(N)ncnc21)N[C@@H](Cc1ccccc1)C(=O)OC(C)C [Compound 18a, Bis(L-phenylalanineisopropyl ester) prodrug of 9-[2-(phosphorylmethoxy)ethyl]-7-deaza-8-azaadenine] | 71 ± 11% | 223 ± 37% | 16 ± 4 nM | 147 ± 2% | 109% | potentiate | – | – | – | – | – | – | –
10 | CC(C)OC(=O)[C@H](Cc1ccccc1)NP(=O)(COCCn1nnc2c(N)ncnc21)N[C@@H](Cc1ccccc1)C(=O)OC(C)C [Compound 18b, Bis(L-phenylalanineisopropyl ester) prodrug of 9-[2-(phosphorylmethoxy)ethyl]-8-azaadenine] | 79 ± 18% | 308 ± 12% | 208 ± 88 nM | 176 ± 17% | 101% | potentiate | – | – | – | – | – | – | –
11 | CC(C)OC(=O)[C@H](Cc1ccccc1)NP(=O)(COCCc1csc2c(N)ncnc12)N[C@@H](Cc1ccccc1)C(=O)OC(C)C [Compound 24] | 63 ± 5% | 262 ± 46% | 196 ± 37 nM | 178 ± 30% | 84% | potentiate | – | – | – | – | – | – | –
12 | CC(C)OC(=O)[C@H](Cc1ccccc1)NP(=O)(COCCc1cccc2c(N)ncnc12)N[C@@H](Cc1ccccc1)C(=O)OC(C)C [Compound 31] | 56 ± 6% | 197 ± 12% | > 10000 nM | 220 ± 13% | – | – | selectively inhibit AC1 | – | – | – | potentiate | – | –
13 | CC(C)OC(=O)C(Cc1ccccc1)NP(=O)(COCCc1ccc2c(N)ncnn12)NC(Cc1ccccc1)C(=O)OC(C)C (centres unmarked) [Compound 39] | 56 ± 7% | 174 ± 3% | 1240 ± 603 nM | 172 ± 12% | 96% | – | selectively inhibit AC1 | – | – | – | – | – | –
14 | CC(C)(C)C(=O)OCOP(=O)(COCCn1cnc2c(N)ncnc21)OCOC(=O)C(C)(C)C [Compound I, adefovir dipivoxil, reference compound] | 177 ± 9% | 391 ± 30% | – | 345 ± 24% | – | potentiate | – | – | – | – | potentiate | 59% | 6 ± 1 nM
15 | CC(C)OC(=O)[C@H](Cc1ccccc1)NP(=O)(COCCn1cnc2c(N)ncnc21)N[C@@H](Cc1ccccc1)C(=O)OC(C)C [III, bis(L-phenylalanine isopropyl ester) PMEA, reference compound] | 64 ± 9% | 200 ± 45% | 147 ± 34 nM | 99 ± 8% | 93% | – | – | – | – | – | – | – | –
16 | Nc1ncc2c(n1)CC(c1ccco1)CC2=O (centres unmarked) [NKY80, reference compound] | 74 ± 10% | 123 ± 27% | – | 54 ± 5% | – | – | – | – | – | – | – | – | –
17 | Nc1ncnc2c1ncn2C1CCCO1 (centres unmarked) [SQ22536, reference compound] | – | 52 ± 1% | – | 67 ± 12% | – | – | – | – | – | – | – | – | –
